Assays:
[1] = system: L3.6pl human pancreatic cancer cells; settings: L3.6pl cells, CDAP 100 μM (ref 10); cited from earlier work
L3.6pl cells [2] = settings: CDAP 100 μM (ref 10); cited from earlier work
[3] = system: L3.6pl human pancreatic cancer cells; assay: Cytotoxicity dose-response (MTS) in L3.6pl cells; type: cell-based; settings: L3.6pl cells, previously determined; read-out: 72 h IC50
Procedure: L3.6pl Studies. Compounds 9 and 10 were evaluated in the metastatic human pancreatic cancer cell line, L3.6pl. L3.6pl has a K-ras mutation, and high polyamine uptake activity.^7 A dose-response curve was obtained for each compound in L3.6pl cells to determine the 72 h L3.6pl IC50 value, described as the dose at which L3.6pl cells were 50% viable compared to the untreated control.
Regarding the biological studies performed in the following examples, it is noted that CHO K1, CHO-MG, and L3.6pl cells were grown in RPMI 1640 medium supplemented with 10% fetal bovine serum (FBS) and 1% penicillin/streptomycin. All cells were grown at 37° C. under a humidified 5% CO2 atmosphere. Aminoguanidine (1 mM used for CHO K1 and CHOMG cells and 250 μM for L3.6pl) was added to the growth medium to prevent oxidation of the compounds of the bovine serum amine oxidase enzyme that is present in calf serum. The cells used were in early to mid log phase and CHO and CHOMG were plated out at 1000 cells/well, whereas the L3.6pl cells were plated at 500 cells/well in a 96 well plate format.
This example illustrates aspects according to various embodiments pertaining to IC50 determinations and cell viability studies. Cell growth was assayed in sterile 96-well microtiter plates (Costar 3599, Corning, N.Y.). CHO K1 or CHOMG cells were plated at 1,000 cells/70 μL and L3.6pl cells at 500 cells/70 μL. The drug solutions of appropriate concentration in phosphate buffered saline (PBS) were added 10 μL per well after overnight incubation. After drug exposure (e.g., for 48 h for CHO K1 and CHO-MG and 48 h or 72 h for L3.6pl), cell growth was determined by measuring formazan formation from the 3-(4,5dimethylthiazol-2-yl)-5-(3-carboxymethoxyphenyl)-2-(4-sulfenyl)-2H tetrazolium, inner salt (MTS) using SynergyMx Biotek microplate reader for absorbance (490 nm) measurements.^27 All experiments were run in triplicate.

[4] = system: polyamine transport system (PTS); settings: CHO vs CHO-MG (ref 17); cited from earlier work
L3.6pl cells [5] = assay: Intracellular polyamine and Ant-44 levels (N-dansylation, HPLC) in L3.6pl cells; type: cell-based, human; settings: Ant-44 only control (2 μM), 72 h
Procedure: One explanation for the enhanced potency was that compound 10 (1666.255) increased polyamine import and, as a result, may have increased intracellular Ant-44 levels. To test this hypothesis, L3.6pl cells were dosed with a fixed concentration of Ant-44 (2 μM) alone and in combination with increasing concentrations of compound 10 (1666.255) to explore how this combination therapy affected intracellular polyamine pools and Ant-44 import.
FIG. 7 is an example according to various embodiments, illustrating both single and combination therapies in L3.6pl cells with Ant-44 and compound 10 (1666.255) after 72 h incubation. Polyamine and Ant-44 levels (expressed as nmoles/mg protein) and relative % viability versus an untreated control were observed after 72 h incubation at 37° C. The untreated control was run in parallel and polyamine levels determined in duplicate and % cell viability in triplicate. Ant-44 was dosed at a fixed concentration of 2 μM and compound 10 (1666.255) at increasing concentrations. Cell viability tracked well with total intracellular polyamine levels (sum of putrescine, spermidine and spermine).
It was concluded that compound 10 was neither acting as a PTI nor as a polyamine import agonist. How then could it lead to intracellular polyamine depletion? […] To test this hypothesis, L3.6pl cells were dosed with increasing concentrations of compound 10 (1666.255) without Ant44. If compound 10 (1666.255) was acting on polyamine pools, one should see a reduction in total polyamine levels as well as decreased cell viability in a dose dependent manner upon increasing levels of 10. Therefore, the toxicity of compound 10 and intracellular polyamine levels after 72 h exposure to 10 were measured (FIG. 8).
FIG. 8 is an example according to various embodiments, illustrating intracellular polyamine levels (expressed as nmoles polyamine/mg protein) in L3.6pl cells dosed with increasing concentrations of compound 10 (1666.255) after cells were incubated for 72 h at 37° C. The untreated control was run in parallel and polyamine levels determined in duplicate via N-dansylation and HPLC. The data was averaged and reported as nmol polyamine (PA)/mg protein.
This example illustrates aspects according to various embodiments pertaining to a 72 h experiment with Compound 10 in L3.6pl cells. Ten milliliters of a cell suspension containing L3.6pl human pancreatic cancer cells (50,000 cells/mL) and aminoguanidine (1 mM) were placed in treated plastic Petri dishes (d=9 cm) and incubated overnight at 37° C. After 24 h, the cells were dosed with compound 10 at 2 μM, 5 μM, or 7 μM. (Note: Stock solutions of 10 at 2, 5, and 7 mM were dissolved in phosphate buffered saline (PBS) and were filtered through a 0.2 μm filter prior to use. The experiments were maintained with a total volume of 10.01 mL where 10 mL of the cell suspension was placed in a plastic dish and each compound or the equivalent PBS volume was added to make up the total volume 10.01 mL for each dish. For example, for the control experiment PBS (10 μL) was added to make up the total volume (10 mL+10 μL=10.01 mL). After 72 h incubation, the cells were collected first by pipetting off the supernatant containing floating dead cells from the culture dish as well as media and placing them into 15 mL tubes. The supernatant containing floating cells was centrifuged (4 min at 1,000 rpm). The cell-free supernatant (supernatant #1) was collected into a new 15 mL tube and quantified (˜8.6 mL) and was then stored frozen and was later quantified by LCMS to investigate the media composition of particular polyamine and amino acid analytes. The attached cells on the dish were washed with PBS (5 mL). The PBS wash was removed by suction and additional PBS (2 mL) was added and again suctioned off to provide twice-washed cells still adhered to the dish. Trypsin (2 mL) was then added to each dish and incubated (3-5 min) until all the cells were detached. Fresh media (8 mL) was added to quench the trypsin. […]

Row | SMILES | viability [1] [%] | Intracellular Spermine (L3.6pl cells [2]) | IC50 [3] [µM] | preference for CHO cell line over CHO-MG (IC50 comparison) [4] [fold] | intracellular level of Ant-44 (L3.6pl cells [5]) [nmol Ant44/mg protein]
1 | NCCCNC1CCCCC1 [CDAP, N-(3-aminopropyl)-cyclohexylamine] | 100 | no detectable spermine | – | – | –
2 | Cl.NCCCCNCCCCNCc1c2ccccc2cc2ccccc12 [Ant-44, reference compound] | – | – | 4 | ~150 | 2.15±0.10
